Like-named read-outs stand apart in the source and are kept apart here.
How the values were obtained:
HIV-1 strain LAI = experiment: Cellular anti-HIV assay (MTT), wild type strain; format: cell-based; conditions: for pEC50: MT4 cells, five days, MTT, HIV-1 strain LAI, Tables 1-6; for WT (pEC50 against wild type HIV-LAI strain): Table 8
Procedure: The compounds of the present invention were examined for anti-viral activity in a cellular assay. […] The cellular assay was performed according to the following procedure.

HIV strain A = experiment: Cellular anti-HIV assay, clinically isolated mutant strain A; format: cell-based; conditions: FR=EC50 (mutant strain)/EC50 (HIV-1 strain LAI)
Procedure: (§1) HIV- or mock-infected MT4 cells were incubated for five days in the presence of various concentrations of the inhibitor. […] Cell viability is measured by measuring the concentration of MTT, a yellow, water soluble tetrazolium dye that is converted to a purple, water insoluble formazan in the mitochondria of living cells only. Upon solubilization of the resulting formazan crystals with isopropanol, the absorbance of the solution is monitored at 540 nm. The values correlate directly to the number of living cells remaining in the culture at the completion of the five day incubation. The inhibitory activity of the compound was monitored on the virus-infected cells and was expressed as EC50 and EC90. These values represent the amount of the compound required to protect 50% and 90%, respectively, of the cells from the cytopathogenic effect of the virus. […] The selectivity index (SI) (ratio CC50/EC50) is an indication of the selectivity of the anti-HIV activity of the inhibitor. Wherever results are reported as e.g. pEC50 or pCC50 values, the result is expressed as the negative logarithm of the result expressed as EC50 or CC50 respectively.
(§2) Because of the increasing emergence of drug resistant HIV strains, the present compounds were tested for their potency against clinically isolated HIV strains harboring several mutations (Table 7 and 8).
(§3) As a measure of the broad spectrum activity of the present compounds, the fold resistance (FR), defined as FR=EC50 (mutant strain)/EC50 (HIV-1 strain LAI), was determined.

HIV strain B = experiment: Cellular anti-HIV assay, clinically isolated mutant strain B; format: cell-based; conditions: FR=EC50 (mutant strain)/EC50 (HIV-1 strain LAI)
Procedure: as §1, §2, §3

HIV strain C = experiment: Cellular anti-HIV assay, clinically isolated mutant strain C; format: cell-based; conditions: FR=EC50 (mutant strain)/EC50 (HIV-1 strain LAI)
Procedure: as §1, §2, §3

HIV strain D = experiment: Cellular anti-HIV assay, clinically isolated mutant strain D; format: cell-based; conditions: FR=EC50 (mutant strain)/EC50 (HIV-1 strain LAI)
Procedure: as §1, §2, §3

HIV strain E = experiment: Cellular anti-HIV assay, clinically isolated mutant strain E; format: cell-based; conditions: FR=EC50 (mutant strain)/EC50 (HIV-1 strain LAI)
Procedure: as §1, §2, §3

HIV strain F = experiment: Cellular anti-HIV assay, clinically isolated mutant strain F; format: cell-based; conditions: FR=EC50 (mutant strain)/EC50 (HIV-1 strain LAI)
Procedure: as §1, §2, §3

mock-infected MT4 cells = experiment: Toxicity on mock-infected cells (MTT)
Procedure: as §1, §3

[1] = pCC50 with mock transfected cells

COc1cccc(-c2nc(-c3ccc(S(=O)(=O)N(CC(C)C)CC(O)C(Cc4ccccc4)NC(=O)OC4COC5OCCC45)cc3)co2)c1 (stereo not shown) [Compound 44]
pEC50 (HIV-1 strain LAI): 8.0
WT (pEC50 against wild type HIV-LAI strain) (HIV-1 strain LAI): 8.0
A (FR value towards mutant A) (HIV strain A): 39
B (FR towards mutant B) (HIV strain B): 14
C (FR towards mutant C) (HIV strain C): 8.1
D (FR towards mutant D) (HIV strain D): 15
E (FR towards mutant E) (HIV strain E): 13
F (FR towards mutant F) (HIV strain F): 77
Tox (pCC50) (mock-infected MT4 cells; [1]): <4.49

CC(=O)OC(c1ccccc1)c1nc(-c2ccc(S(=O)(=O)N(CC(C)C)CC(O)C(Cc3ccccc3)NC(=O)OC3COC4OCCC34)cc2)co1 (stereo not shown) [Compound 48]
pEC50 (HIV-1 strain LAI): 8.3
WT (pEC50 against wild type HIV-LAI strain) (HIV-1 strain LAI): 8.3
A (FR value towards mutant A) (HIV strain A): 89
B (FR towards mutant B) (HIV strain B): 25
C (FR towards mutant C) (HIV strain C): 5.8
D (FR towards mutant D) (HIV strain D): 17
E (FR towards mutant E) (HIV strain E): 6.9
Tox (pCC50) (mock-infected MT4 cells): <4.0

CCCc1nc(-c2ccc(S(=O)(=O)N(CC(C)C)CC(O)C(Cc3ccccc3)NC(=O)OC3COC4OCCC34)cc2)co1 (stereo not shown) [Compound 40]
pEC50 (HIV-1 strain LAI): 8.5
WT (pEC50 against wild type HIV-LAI strain) (HIV-1 strain LAI): 8.5
A (FR value towards mutant A) (HIV strain A): 5.0
C (FR towards mutant C) (HIV strain C): 4.1
D (FR towards mutant D) (HIV strain D): 12.9
E (FR towards mutant E) (HIV strain E): 41
F (FR towards mutant F) (HIV strain F): 219
Tox (pCC50) (mock-infected MT4 cells): <4.49

CC(C)CN(CC(O)C(Cc1ccccc1)NC(=O)OC1COC2OCCC12)S(=O)(=O)c1ccc(-c2coc(-c3ccc(C#N)cc3)n2)cc1 (stereo not shown) [Compound 52]
pEC50 (HIV-1 strain LAI): 8.1
WT (pEC50 against wild type HIV-LAI strain) (HIV-1 strain LAI): 8.1
B (FR towards mutant B) (HIV strain B): 17
C (FR towards mutant C) (HIV strain C): 6.2
D (FR towards mutant D) (HIV strain D): 16
E (FR towards mutant E) (HIV strain E): 11
Tox (pCC50) (mock-infected MT4 cells): <4.49

CC(C)CN(CC(O)C(Cc1ccccc1)NC(=O)OC1COC2OCCC12)S(=O)(=O)c1ccc(-c2coc(-c3ccc(Br)cc3)n2)cc1 (stereo not shown) [Compound 51]
pEC50 (HIV-1 strain LAI): 7.5
WT (pEC50 against wild type HIV-LAI strain) (HIV-1 strain LAI): 7.5
C (FR towards mutant C) (HIV strain C): 4.8
D (FR towards mutant D) (HIV strain D): 12
E (FR towards mutant E) (HIV strain E): 4.8
Tox (pCC50) (mock-infected MT4 cells; [1]): <4.49

Cc1nc(-c2ccc(S(=O)(=O)N(CC(C)C)CC(O)C(Cc3ccccc3)NC(=O)OC3COC4OCCC34)cc2)co1 (stereo not shown) [Compound 35]
pEC50 (HIV-1 strain LAI): 8.4
WT (pEC50 against wild type HIV-LAI strain) (HIV-1 strain LAI): 8.4
A (FR value towards mutant A) (HIV strain A): 11
B (FR towards mutant B) (HIV strain B): 10.5
C (FR towards mutant C) (HIV strain C): 8.3
D (FR towards mutant D) (HIV strain D): 6.2
E (FR towards mutant E) (HIV strain E): 8.3
F (FR towards mutant F) (HIV strain F): 42
Tox (pCC50) (mock-infected MT4 cells): <4.0

CC(C)CN(C[C@@H](O)[C@H](Cc1ccccc1)NC(=O)O[C@H]1CO[C@H]2OCC[C@H]21)S(=O)(=O)c1ccc(-c2noc(-c3ccco3)n2)cc1 [Compound 38, [(1S,2R)-3-[N-[4-(5-(furan-2-yl)oxadiazol-3-yl)phenylsulfonyl]-N-(2-methylpropyl)amino]-2-hydroxy-1-(phenylmethyl)propyl]carbamic acid, [(3R,3aS,6aR)-hexahydrofuro[2,3-b]furan-3-yl]ester]
pEC50 (HIV-1 strain LAI): 8.4
WT (pEC50 against wild type HIV-LAI strain) (HIV-1 strain LAI): 8.4
A (FR value towards mutant A) (HIV strain A): 30
B (FR towards mutant B) (HIV strain B): 23
C (FR towards mutant C) (HIV strain C): 6.8
D (FR towards mutant D) (HIV strain D): 14.8
E (FR towards mutant E) (HIV strain E): 9.5
F (FR towards mutant F) (HIV strain F): 44.7
Tox (pCC50) (mock-infected MT4 cells; [1]): <4.49

CC(=O)Nc1nc(-c2ccc(S(=O)(=O)N(CC(C)C)CC(O)C(Cc3ccccc3)NC(=O)OC3COC4OCCC34)cc2)cs1 (stereo not shown) [Compound 3]
pEC50 (HIV-1 strain LAI): 8.3
WT (pEC50 against wild type HIV-LAI strain) (HIV-1 strain LAI): 8.3
A (FR value towards mutant A) (HIV strain A): 39
B (FR towards mutant B) (HIV strain B): 8.9
C (FR towards mutant C) (HIV strain C): 7.4
D (FR towards mutant D) (HIV strain D): 26
E (FR towards mutant E) (HIV strain E): 17
F (FR towards mutant F) (HIV strain F): 151
Tox (pCC50) (mock-infected MT4 cells; [1]): 4.11

Cc1cc(-c2nc(-c3ccc(S(=O)(=O)N(CC(C)C)CC(O)C(Cc4ccccc4)NC(=O)OC4COC5OCCC45)cc3)co2)no1 (stereo not shown) [Compound 46]
pEC50 (HIV-1 strain LAI): 8.4
WT (pEC50 against wild type HIV-LAI strain) (HIV-1 strain LAI): 8.4
A (FR value towards mutant A) (HIV strain A): 182
B (FR towards mutant B) (HIV strain B): 32
C (FR towards mutant C) (HIV strain C): 9.1
D (FR towards mutant D) (HIV strain D): 32
E (FR towards mutant E) (HIV strain E): 9.8
Tox (pCC50) (mock-infected MT4 cells): <4.49

CC(C)CN(CC(O)C(Cc1ccccc1)NC(=O)OC1COC2OCCC12)S(=O)(=O)c1ccc(-c2csc(N)n2)cc1 (stereo not shown) [Compound 2]
pEC50 (HIV-1 strain LAI): 8.5
WT (pEC50 against wild type HIV-LAI strain) (HIV-1 strain LAI): 8.5
A (FR value towards mutant A) (HIV strain A): 26
B (FR towards mutant B) (HIV strain B): 10.0
C (FR towards mutant C) (HIV strain C): 3.0
D (FR towards mutant D) (HIV strain D): 9.3
E (FR towards mutant E) (HIV strain E): 8.9
F (FR towards mutant F) (HIV strain F): 91
Tox (pCC50) (mock-infected MT4 cells): 4.07

CC(C)CN(CC(O)C(Cc1ccccc1)NC(=O)OC1COC2OCCC12)S(=O)(=O)c1ccc(-c2c[nH]c(NC(=O)OC3COC4OCCC34)n2)cc1 (stereo not shown) [Compound 33]
pEC50 (HIV-1 strain LAI): 6.7
WT (pEC50 against wild type HIV-LAI strain) (HIV-1 strain LAI): 6.7
A (FR value towards mutant A) (HIV strain A): 0.71
B (FR towards mutant B) (HIV strain B): 0.66
C (FR towards mutant C) (HIV strain C): 0.2
E (FR towards mutant E) (HIV strain E): 0.19
F (FR towards mutant F) (HIV strain F): 2.6
Tox (pCC50) (mock-infected MT4 cells; [1]): <4.0

CC(C)CN(CC(O)C(Cc1ccccc1)NC(=O)OC1COC2OCCC12)S(=O)(=O)c1ccc(-c2csc(NCCCN(C)C)n2)cc1 (stereo not shown) [Compound 6]
pEC50 (HIV-1 strain LAI): 7.5
WT (pEC50 against wild type HIV-LAI strain) (HIV-1 strain LAI): 7.5
A (FR value towards mutant A) (HIV strain A): 6.2
B (FR towards mutant B) (HIV strain B): 4.7
C (FR towards mutant C) (HIV strain C): 1.2
D (FR towards mutant D) (HIV strain D): 3.8
E (FR towards mutant E) (HIV strain E): 6.6
F (FR towards mutant F) (HIV strain F): 79
Tox (pCC50) (mock-infected MT4 cells): 4.69

CC(C)CN(CC(O)C(Cc1ccccc1)NC(=O)OC1COC2OCCC12)S(=O)(=O)c1ccc(-c2coc(-c3ccc([N+](=O)[O-])cc3)n2)cc1 (stereo not shown) [Compound 43]
pEC50 (HIV-1 strain LAI): 7.9
WT (pEC50 against wild type HIV-LAI strain) (HIV-1 strain LAI): 7.9
A (FR value towards mutant A) (HIV strain A): 54
B (FR towards mutant B) (HIV strain B): 23
C (FR towards mutant C) (HIV strain C): 9.1
D (FR towards mutant D) (HIV strain D): 10.2
E (FR towards mutant E) (HIV strain E): 6.6
Tox (pCC50) (mock-infected MT4 cells; [1]): <4.0

[(1S,2R)-2-hydroxy-3-[N-[4-(2-methylaminothiazol-4-yl)phenylsulfonyl]-N-(2-methylpropyl)amino]-1-(phenylmethyl)propyl]carbamic acid, [(3R,3aS,6aR)-hexahydrofuro[2,3-b]furan-3-yl]ester [Compound 1]
pEC50 (HIV-1 strain LAI): 8.5
WT (pEC50 against wild type HIV-LAI strain) (HIV-1 strain LAI): 8.5
A (FR value towards mutant A) (HIV strain A): 5.4
B (FR towards mutant B) (HIV strain B): 2.1
C (FR towards mutant C) (HIV strain C): 1.2
D (FR towards mutant D) (HIV strain D): 7.9
E (FR towards mutant E) (HIV strain E): 5.0
F (FR towards mutant F) (HIV strain F): 42
Tox (pCC50) (mock-infected MT4 cells; [1]): 4.19

CC(C)CN(CC(O)C(Cc1ccccc1)NC(=O)OC1COC2OCCC12)S(=O)(=O)c1ccc(-c2coc(-c3cccs3)n2)cc1 (stereo not shown) [Compound 50]
pEC50 (HIV-1 strain LAI): 8.0
WT (pEC50 against wild type HIV-LAI strain) (HIV-1 strain LAI): 8.0
B (FR towards mutant B) (HIV strain B): 14
C (FR towards mutant C) (HIV strain C): 4.3
D (FR towards mutant D) (HIV strain D): 13
Tox (pCC50) (mock-infected MT4 cells): <4.49

CC(=O)Nc1nc(-c2ccc(S(=O)(=O)N(CC(C)C)CC(O)C(Cc3ccccc3)NC(=O)OC3COC4OCCC34)cc2)c[nH]1 (stereo not shown) [Compound 32]
pEC50 (HIV-1 strain LAI): 7.7
WT (pEC50 against wild type HIV-LAI strain) (HIV-1 strain LAI): 7.7
A (FR value towards mutant A) (HIV strain A): 1.3
B (FR towards mutant B) (HIV strain B): 1.0
C (FR towards mutant C) (HIV strain C): 0.33
E (FR towards mutant E) (HIV strain E): 0.95
F (FR towards mutant F) (HIV strain F): 7.2
Tox (pCC50) (mock-infected MT4 cells; [1]): <4.0
